From patent US20260365621A1, “Non-Hallucinogenic Tryptamine Compounds” (priority 2022, published 2026)
Like-named read-outs stand apart in the source and are kept apart here.

How the values were obtained:
[1] = tested on: 5-HT2A; conditions: Central Nervous System (CNS); cited from earlier work
[2] = tested on: 5-HT2A; conditions: Central Nervous System (CNS); cited from earlier work; remark: listed apart in the source
[3] = tested on: head twitch response in C57BL/6J male mice; type: in vivo
Protocol: The study of example 2 was performed using C57BL/6J male mice (25-30 g; Envigo, Milan, Italy). The animals were divided into groups of 10 animals each: (a) control, (b) vehicle, and (c) combinations of psilocyn (1 mg/kg) and pinoline (3 or 10 mg/kg). The treated mice were left to fast in the 12 hours prior to administration. Psilocyn and pinoline were resuspended in a solution of EtOH 20%. Mice were subjected to a singular oral administration of compounds. The vehicle group was given the EtOH 20% solution.
After administration, the animals were placed individually in transparent plexiglass cages. […] (See Halberstadt, Adam L., et al. “Differential contributions of serotonin receptors to the behavioral effects of indoleamine hallucinogens in mice.” Journal of psychopharmacology 25.11 (2011): 1548-1561.) (Sun, Yina, et al. “Effects of low-doses of methamphetamine on d-fenfluramine-induced head-twitch response (HTR) in mice during ageing and c-fos expression in the prefrontal cortex.” BMC neuroscience 24.1 (2023): 1-17.).

[4] = tested on: mechanical allodynia / paw-withdrawal threshold after CAR injection; assay: Mechanical allodynia, Von Frey hair test after CAR injection; conditions: Psilocin alone at 3 and 10 mg/Kg
Protocol: A study was performed using male Sprague-Dawley rats (200-250 g; Envigo, Milan, Italy). Food and water were accessible ad libitum. Rats were concurrently subjected to a singular subplantar injection of CAR (100 μL of saline solution containing 1% CAR).
Mechanical allodynia was evaluated using a dynamic plantar Von Frey hair aesthesiometer on time 0 and 1, 2, 3, 4, 5, and 6 days post-injection (Bio-EVF4; Bioseb, Vitrolles, France) as previously described (D'Amico, R.; Fusco, R.; Siracusa, R.; Impellizzeri, D.; Peritore, A. F.; Gugliandolo, E.; Interdonato, L.; Sforza, A. M.; Crupi, R.; Cuzzocrea, S.; et al. Inhibition of P2X7 Purinergic Receptor Ameliorates Fibromyalgia Syndrome by Suppressing NLRP3 Pathway. Int. J. Mol. Sci. 2021, 22, 6471. https://doi.org/10.3390/ijms22126471). The device encloses a force transducer furnished with a plastic tip. When pressure is applied to the tip, the force applied is recorded. The tip was applied to the plantar area of the hind leg, and a rising upward force was exerted until the paw was withdrawn. The withdrawal threshold was defined as the force, expressed in grams, at which the mouse removed the paw.
To investigate whether Psilocin+Pinoline were able to reduce pain associated with CAR injection, a Von Frey test was performed.

[5] = tested on: CAR-induced paw edema; assay: Carrageenan (CAR)-induced rat paw edema (plethysmometer); conditions: Psilocin alone at 3 and 10 mg/Kg
Protocol: A study was performed using male Sprague-Dawley rats (200-250 g; Envigo, Milan, Italy). Food and water were accessible ad libitum. Rats were concurrently subjected to a singular subplantar injection of CAR (100 μL of saline solution containing 1% CAR). […] Edema was expressed as the increase in paw volume (mL) after CAR injection relative to the pre-injection value for all animals. Scores were expressed as paw volume difference (mL).

SMILES: CN(C)CCc1c[nH]c2cccc(OP(=O)(O)O)c12 [Psilocybin, 4-phosphoryloxy-N,N-dimethyltryptamine]
- activities caused by 5-HT2A binding in the CNS [1]: hallucinogenic, anxiolytic, and psychoactive activities
- binding to 5-HT2A receptor [2]: known to bind

SMILES: CN(C)CCc1c[nH]c2cccc(O)c12 [Psilocin, 4-hydroxy-N,N-dimethyltryptamine]
- effect in head twitch test, 11-20 minutes ([3]; 10 mg/kg alone, after 11-20 minutes from administration): finished
- number of head movements ([3]; 10 mg/kg, after 10 minutes from treatment): important number of head movements
- analgesic effects [4]: anti-inflammatory and analgesic effects
- anti-inflammatory effects [5]: anti-inflammatory and analgesic effects
- activities caused by 5-HT2A binding in the CNS [1]: hallucinogenic, anxiolytic, and psychoactive activities
- binding to 5-HT2A receptor [2]: known to bind

SMILES: COc1ccc2[nH]c3c(c2c1)CCNC3 [Pinoline, pinoline]
- effect of pinoline on psilocin activity (head twitch) ([3]; pinoline 3 mg/kg with psilocin 1 mg/kg): prolonged the psilocin (1 mg/kg) activity
- effect of pinoline on psilocin activity (head twitch) ([3]; pinoline 10 mg/kg with psilocin 1 mg/kg): prolonged the psilocin (1 mg/kg) activity
